The text below walks through data of patent publication US9359371B2, “Bicyclic substituted pyrimidine compounds” (Xuanzhu Pharma Co., Ltd., priority 2012, dated 2016).

One data set deals with PDE-5A enzyme (Homo sapiens (Human), UniProt O76074). Kind of data set: Caliper Mobility-Shift PDE-5A Assay. It is filed as biochemical. Conditions: Table 1; Avanafil value is the control. Here is the method:
Experiment 1: Measurement of Enzymatic Activity In Vitro
PDE-5A enzyme: humanized PDE-5 enzyme, SignalChem, Cat#93-31G-20.
Method: enzyme assay, Caliper Mobility-Shift PDE-5A Assay:
The test compound was accurately weighed, dissolved in DMSO, mixed thoroughly and formulated into 10 mM.
(§1) The maximum final concentration of the compound was 10 μM. The plate was incubated at 30° C. for 1 h, and 20 μL of 70 μM EDTA was then added to stop the reaction. 26 μL of solution of each well was transferred to a 384-well plate. The conversion was read on a EZ reader II. The inhibition rate was calculated by the formula below, and used to calculate IC50 by Prism 5.0 Inhibition rate=[Conversion (ZPE)−Conversion (sample)]×100/[Conversion (ZPE)−Conversion (HPE)]
Note: HPE: control without enzyme; ZPE: control without a test compound

Another data set concerns the target PDE-11 (Homo sapiens (Human), UniProt Q9HCR9). The data set is described as follows: Caliper Mobility-Shift PDE-11 Assay. Conditions: Table 4; maximum final concentration 10 μM. It is filed as biochemical. Here is the method:
Experiment 4: Measurement of Pharmacological Activity on PDE-11 Enzyme In Vitro
Method: enzyme assay, Caliper Mobility-Shift PDE-11 Assay
The test compound was accurately weighed, dissolved in DMSO, mixed thoroughly and formulated into 10 mM. The above stock solution was diluted to a concentration of 0.5 mM with DMSO, and then was gradiently diluted by a dilution factor of 3.162, resulting in 11 concentrations in total.
as §1, with “To a 96-well plate, 20 μL of 10 μM FL-cGMP as the substrate was added; then 1 μL solution of the compound in DMSO or DMSO solution without compound was added; and then 29 μL of 0.28 ng/μL PDE-11 enzyme buffer (100 mM Hepes pH 7.5, 5 mM MgCl2, 0.002% Brij-35) was added. The maximum” for “The maximum”, “II. The Inhibition rate was” for “II. The inhibition rate was”
Note: HPE: control without enzyme; ZPE: control without compound

Data set [1] has as its target bovine retinal PDE-6 (Bos taurus (Bovine), UniProt P11541+P23439). Kind of data set: PDE-6 enzyme assay, [3H]cGMP. It is filed as biochemical. Here is the method: (§2) Experiment 3: Measurement of Enzyme Activity on PDE-6 Enzyme In Vitro
(§3) Source of enzyme: PDE-6, bovine retinal PDE-6
(§4) Method: The test compound or solvent was incubated at 25° C. for 15 min with enzyme solution (0.2 μg/mL) in Tris-HCl buffer of pH 7.5. 100 μM cGMP and 0.03 μM [^3H] cGMP were then added to activate the reaction. The mixture was incubated for 20 min. The reaction was stopped at 100° C. By addition of snake venom nucleotidase, the product [^3H] GMP was converted into [^3H] Guanosine, which was separated with AG1-X2 resin. The amount of [^3H] Guanosine was measured.

Data set [2] relates to bovine retinal PDE-6. The data set is described as follows: PDE-6 enzyme assay, [3H]cGMP. Particulars: for Selectivity (PDE-6/PDE-5): IC50 for PDE-6/IC50 for PDE-5. Type of data set: biochemical. As to the method:
as §2, §3, §4

Data set [3] concerns the target PDE-5 enzyme (human blood platelets) (Homo sapiens (Human), UniProt O76074). The data set is described as follows: PDE-5 enzyme assay, [3H]cGMP. It is filed as biochemical.
The nature of data set [4]: Pharmacokinetics (PK) in SD rats. It is filed as in vivo. Particulars: rat; for AUC(0-inf) / half-life / Cmax / Tmax / bioavailability: SD, plasma; for bioavailability: read-out: F % (absolute bioavailability). Here is the method:
Experiment 9: Assay of Pharmacokinetics (PK) of the Compounds of the Present Invention in SD Rats
Compound 1-54 of the present invention were prepared by the methods described in Example 1 to Example 54 of the present invention.
The control drug Avanafil, of which the structure was stated above, was purchased commercially.
Collection of the rat's blood: The animal was fixed. The tail was warmed with a water bath 10 min before the collection time. About 200 μL of whole blood was collected from the tail vein. The collected blood was collected into anticoagulant tubes containing heparin sodium. The blood samples were centrifuged at 4° C. by 8000 rpm for 6 min to give the plasma samples, which should be prepared within 30 min after the collection of blood. The plasma samples were stored in a freezer of −80° C. until test.
The result output by Analyst 1.5.1 of AB Company was used as the concentration of the tested sample (plasma sample). The mean value, standard deviation, variable coefficient and the like were calculated by Microsoft Excel (except for the result directly output by Analyst 1.5.1). Parameters of PK were calculated by Pharsight Phoenix 6.2 software. Formula for calculating oral bioavailability: F %=AUCinf−po*Doseiv/AUCinf−iv*Dosepo.

In another data set the target is hERG channel (Homo sapiens (Human), UniProt Q12809). Kind of data set: hERG potassium channel whole-cell patch clamp on CHO-K1 cell line. The source says:
Experiment 8: Detection of Inhibitory Effect of the Compounds of the Present Invention on hERG Potassium Channel by the Patch Clamp Method
Rapidly activated human delayed rectifying outward potassium current (IKr) is mainly mediated by hERG ion channel and is involved in repolarization of human cardiac muscle cell. Clinically, blocking of the current by a drug is the main cause of QT interval prolongation syndrome, acute arrhythmia and even sudden death. The main purpose of the experiment is to test the blocking effect of the compounds of the present invention on hERG channel, and to determine the half maximal inhibitory concentration (IC50) of the compounds.
The experiment mainly included: (1) recording hERG current by patch clamp technique on CHO-K1 cell line which stably expressed hERG channel; (2) calculating the Inhibition rate of each concentration according to hERG tail current; (3) testing each compound at 5 concentrations to calculate IC50; (4) testing 2 cells at each concentration; (5) a positive control.
The structures and synthesis of Compound 88 (WO-88) and Compound 93 (WO-93) as disclosed in WO200119802A were described in Example 55 and Example 56.
Drug for positive control: Amitriptyline hydrochloride (Sigma-Aldrich, an international standard blocker for hERG channel)
Pippette Solution (in mM): KCl 120, KOH 31.25, CaCl2 5.374, MgCl2 1.75, Ethylene glycol-bis(β-aminoethyl ether)-N,N,N′,N′-tetraacetic acid (EGTA) 10, HEPES 10, Na2-ATP 4, adjusted to a pH of 7.2 with 1N potassium hydroxide; adjusted to an osmotic pressure of 280-290 mOsm; preserved at −20° C. after filtration.
Preparation of compounds: Some of the compounds of the present invention and Amitriptyline hydrochloride as the positive control drug were separately dissolved in 100% DMSO (Merck, 61850125001730), then prepared into stock solutions of 30 mM. Before the experiment, the above stock solutions were diluted with DMSO to a concentration of 1000-fold of the experimental concentration. Then the diluted solutions were further diluted with extracellular solution by 1:1000 to the required experimental concentration. The final concentration of DMSO in the extracellular solution was kept as 0.1%.
Stable cell line CHO-hERG was purchased from AVIVA Company. The hERG current on the cell line was recorded. For the purpose of quality control, the smallest seal resistance was no less than 500 MΩ, and the hERG current was no less than 0.4 nA.
The hERG current was recorded by a whole-cell patch clamp technique. Cell suspension was added into a 35-mm culture dish. The culture dish was placed on the objective table of an inverted microscope. Upon cell attachment, perfusion was conducted with the extracellular solution at a flow rate of 1-2 mL/min.
Glass microelectrode with the pipette tip resistance of 2-5 MΩ was controlled by a microelectrode puller via a two-step process. After the whole-cell record was set up, the clamp potential was kept at −80 mV. The cell was depolarized to +60 mV by applying a voltage stimulus, and then repolarized to −50 mV to obtain the hERG tail current. Recordation was conducted after the current was stable. The extracellular perfusion was started from the lowest concentration, with 5-10 min for each concentration until the current was stable, and then conducted with the next concentration.
Stimulus payment and signal collection were performed by A/D-D/A conversion using Digidata 1440 (Molecular Devices) and pCLAMP software (Version 10.2, Molecular Devices). Signal amplification was performed on a patch clamp amplifier (Multiclamp 700B, Molecular Devices), with a filter of 1 KHz. Further data analysis and curve fitting were conducted by Clampfit (version 10.2, Molecular Devices) and Prism. The data were presented as mean value±standard deviation.
In the process of data analysis, the peak value and the baseline of the tail current were corrected when determining the blocking effect on hERG.

The mark [5] stands for this setting: Table 3, read-out: IC50 on PDE-6.
Where [6] appears, read: Table 4-1, read-out: PDE-6 (IC50 nM).
Where [7] appears, read: Table 2, human blood platelet enzyme, read-out: IC50 on PDE-5.
The mark [8] stands for this setting: Table 4-1, read-out: PDE-5 (IC50 nM).
Where [9] appears, read: po, intragastric administration, 5 mg/kg.
Setting [10] is: po, intragastric administration, 1 mg/kg.

SMILES strings stand for the structures. Like-named read-outs stand apart in the source and are kept apart here.

Chain of bovine retinal PDE-6 (Bos taurus (Bovine), UniProt P11541+P23439) (P11541 whole entry, looked up): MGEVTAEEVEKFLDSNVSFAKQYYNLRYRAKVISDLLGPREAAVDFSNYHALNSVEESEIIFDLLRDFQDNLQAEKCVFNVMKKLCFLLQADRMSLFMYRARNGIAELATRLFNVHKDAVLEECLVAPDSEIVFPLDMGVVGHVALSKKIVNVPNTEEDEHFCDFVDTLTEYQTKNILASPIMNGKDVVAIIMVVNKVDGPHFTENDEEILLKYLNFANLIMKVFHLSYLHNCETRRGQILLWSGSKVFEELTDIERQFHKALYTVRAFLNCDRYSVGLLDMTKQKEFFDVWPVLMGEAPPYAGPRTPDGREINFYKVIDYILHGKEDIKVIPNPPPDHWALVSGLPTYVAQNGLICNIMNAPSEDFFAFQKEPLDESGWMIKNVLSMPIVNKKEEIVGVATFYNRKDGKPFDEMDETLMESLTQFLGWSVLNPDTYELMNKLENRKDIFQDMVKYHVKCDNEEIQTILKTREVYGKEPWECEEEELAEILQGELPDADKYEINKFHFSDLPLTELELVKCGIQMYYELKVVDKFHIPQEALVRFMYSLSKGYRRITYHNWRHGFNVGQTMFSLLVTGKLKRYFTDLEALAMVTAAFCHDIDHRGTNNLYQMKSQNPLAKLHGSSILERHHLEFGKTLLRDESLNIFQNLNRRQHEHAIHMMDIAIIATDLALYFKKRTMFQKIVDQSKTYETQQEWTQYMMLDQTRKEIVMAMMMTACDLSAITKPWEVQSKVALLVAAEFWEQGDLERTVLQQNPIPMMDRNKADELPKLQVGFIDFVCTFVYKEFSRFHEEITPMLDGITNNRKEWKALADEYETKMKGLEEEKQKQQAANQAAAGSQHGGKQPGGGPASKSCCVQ
Chain of bovine retinal PDE-6 (Bos taurus (Bovine), UniProt P11541+P23439) (P23439 whole entry, looked up): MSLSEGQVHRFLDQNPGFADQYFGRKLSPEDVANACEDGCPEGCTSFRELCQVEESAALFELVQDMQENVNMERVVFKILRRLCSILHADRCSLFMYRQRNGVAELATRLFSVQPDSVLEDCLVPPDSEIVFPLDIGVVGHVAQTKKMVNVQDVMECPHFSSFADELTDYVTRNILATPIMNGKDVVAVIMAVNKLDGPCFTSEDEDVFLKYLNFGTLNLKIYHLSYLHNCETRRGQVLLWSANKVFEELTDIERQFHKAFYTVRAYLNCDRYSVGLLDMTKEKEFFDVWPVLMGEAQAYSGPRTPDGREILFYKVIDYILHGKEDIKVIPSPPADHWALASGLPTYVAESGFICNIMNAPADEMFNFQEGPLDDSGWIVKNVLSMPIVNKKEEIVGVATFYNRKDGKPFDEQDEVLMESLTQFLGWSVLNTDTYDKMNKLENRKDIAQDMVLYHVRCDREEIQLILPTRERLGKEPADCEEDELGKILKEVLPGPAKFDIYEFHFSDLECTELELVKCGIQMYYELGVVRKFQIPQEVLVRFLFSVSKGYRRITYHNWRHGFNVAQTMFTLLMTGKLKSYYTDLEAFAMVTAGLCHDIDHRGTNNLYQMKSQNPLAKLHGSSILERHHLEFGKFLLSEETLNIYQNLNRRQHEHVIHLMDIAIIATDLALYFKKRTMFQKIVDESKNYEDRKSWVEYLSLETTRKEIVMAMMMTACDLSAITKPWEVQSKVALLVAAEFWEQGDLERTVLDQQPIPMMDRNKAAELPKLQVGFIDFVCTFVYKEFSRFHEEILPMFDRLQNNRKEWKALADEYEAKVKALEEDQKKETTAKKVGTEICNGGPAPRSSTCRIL
Chain of hERG channel (Q12809 whole entry): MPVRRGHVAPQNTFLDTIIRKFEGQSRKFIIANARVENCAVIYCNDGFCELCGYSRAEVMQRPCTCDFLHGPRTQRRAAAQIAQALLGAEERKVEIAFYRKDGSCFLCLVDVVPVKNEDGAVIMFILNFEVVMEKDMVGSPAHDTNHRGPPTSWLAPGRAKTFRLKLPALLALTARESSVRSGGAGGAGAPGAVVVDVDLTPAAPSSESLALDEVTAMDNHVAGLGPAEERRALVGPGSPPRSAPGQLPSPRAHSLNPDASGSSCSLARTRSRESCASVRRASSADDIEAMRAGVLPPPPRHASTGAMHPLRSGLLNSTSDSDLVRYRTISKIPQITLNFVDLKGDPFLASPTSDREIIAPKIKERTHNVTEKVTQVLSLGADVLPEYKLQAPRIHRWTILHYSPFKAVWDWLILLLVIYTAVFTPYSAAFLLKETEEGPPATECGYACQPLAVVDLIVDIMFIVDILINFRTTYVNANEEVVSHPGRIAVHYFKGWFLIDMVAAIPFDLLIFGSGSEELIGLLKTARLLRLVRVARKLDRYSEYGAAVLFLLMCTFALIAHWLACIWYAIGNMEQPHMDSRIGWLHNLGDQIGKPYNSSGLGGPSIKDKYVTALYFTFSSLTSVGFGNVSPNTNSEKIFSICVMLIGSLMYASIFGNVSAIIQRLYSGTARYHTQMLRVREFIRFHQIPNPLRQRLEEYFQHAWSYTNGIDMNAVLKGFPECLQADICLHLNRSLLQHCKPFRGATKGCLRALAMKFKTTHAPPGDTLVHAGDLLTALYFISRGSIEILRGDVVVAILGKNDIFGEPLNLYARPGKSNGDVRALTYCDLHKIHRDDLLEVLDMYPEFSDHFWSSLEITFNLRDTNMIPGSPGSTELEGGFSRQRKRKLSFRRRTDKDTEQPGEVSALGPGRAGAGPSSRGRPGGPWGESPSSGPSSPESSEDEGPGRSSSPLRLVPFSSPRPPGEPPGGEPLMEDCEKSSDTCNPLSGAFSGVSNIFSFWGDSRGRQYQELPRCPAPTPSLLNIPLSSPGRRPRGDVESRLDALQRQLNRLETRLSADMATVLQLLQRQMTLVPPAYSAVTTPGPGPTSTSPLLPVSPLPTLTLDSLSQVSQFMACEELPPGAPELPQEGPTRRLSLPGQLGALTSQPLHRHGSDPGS
Chain of PDE-11 (Q9HCR9 whole entry): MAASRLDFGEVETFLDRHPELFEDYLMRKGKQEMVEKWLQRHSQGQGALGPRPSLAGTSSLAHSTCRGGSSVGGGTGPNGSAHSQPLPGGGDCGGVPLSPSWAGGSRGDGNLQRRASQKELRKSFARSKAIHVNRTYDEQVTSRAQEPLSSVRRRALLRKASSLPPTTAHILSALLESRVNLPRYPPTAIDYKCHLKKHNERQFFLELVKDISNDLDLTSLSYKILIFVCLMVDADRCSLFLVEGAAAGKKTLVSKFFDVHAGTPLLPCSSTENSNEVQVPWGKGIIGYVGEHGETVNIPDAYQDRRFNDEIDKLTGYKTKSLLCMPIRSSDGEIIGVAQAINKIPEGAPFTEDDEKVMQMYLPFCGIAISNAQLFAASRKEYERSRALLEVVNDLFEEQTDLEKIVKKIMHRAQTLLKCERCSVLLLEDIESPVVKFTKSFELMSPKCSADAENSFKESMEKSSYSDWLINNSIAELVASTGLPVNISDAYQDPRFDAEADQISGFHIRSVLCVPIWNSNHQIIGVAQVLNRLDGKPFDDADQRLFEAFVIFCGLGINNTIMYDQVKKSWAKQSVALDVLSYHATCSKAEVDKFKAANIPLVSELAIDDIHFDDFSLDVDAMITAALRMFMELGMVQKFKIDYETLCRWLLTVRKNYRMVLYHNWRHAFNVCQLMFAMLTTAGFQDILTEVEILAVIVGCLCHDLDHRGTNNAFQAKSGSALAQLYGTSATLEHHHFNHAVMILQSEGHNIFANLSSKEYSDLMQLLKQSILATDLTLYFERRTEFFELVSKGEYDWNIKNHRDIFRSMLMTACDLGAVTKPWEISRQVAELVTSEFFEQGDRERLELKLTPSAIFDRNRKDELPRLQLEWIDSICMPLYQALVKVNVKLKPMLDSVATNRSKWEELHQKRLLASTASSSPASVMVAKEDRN

Turning to `COc1ccc(CNc2nc(N3CCC4(CC4)C3)ncc2C(=O)NCCN2CCN(C)CC2)cc1Cl` [Compound 46, 4-((3-chloro-4-methoxybenzyl)amino)-N-(2-(4-methylpiperazin-1-yl)ethyl)-2-(5-azaspiro[2.4]heptan-5-yl)pyrimidine-5-formamide], the IC50 was 14.9 nM on PDE-5A enzyme; more than 10000 nM on PDE-11; 310 nM at bovine retinal PDE-6 [1] (setting [5]); 310 nM at bovine retinal PDE-6 [1] (setting [6]); 0.31 nM in data set [3] (setting [7]); 0.31 nM in data set [3] (setting [8]). Further, the “Selectivity (PDE-6/PDE-5)” value in the data set on bovine retinal PDE-6 [2] came out at 1000. In data set [4] (intravenous injection, 1 mg/kg), this compound came in with an AUC(0-inf) of 214 ng·h/mL. This compound also had a half-life in data set [4] (intravenous injection, 1 mg/kg) of 13.9 h. The compound also returned a Cl_obs in data set [4] (intravenous injection, 1 mg/kg) of 79 mL/min/kg. This compound also came in with a Vss_obs in data set [4] (intravenous injection, 1 mg/kg) of 86.40 L/kg.

`COc1ccc(CNc2nc(N3CC4CC4C3)ncc2C(=O)N[C@H]2CC[C@H](O)CC2)cc1F` (stereo partly drawn) [Compound 48, 2-(3-azabicyclo[3.1.0]hexan-3-yl)-4-((3-fluoro-4-methoxybenzyl)amino)-N-(trans-4-hydroxycyclohexyl)pyrimidine-5-formamide]: the IC50 on bovine retinal PDE-6 [1] (setting [5]) was found to be 1110 nM. Further, the IC50 on bovine retinal PDE-6 [1] (setting [6]) stood at 1110 nM. Also, the “Selectivity (PDE-6/PDE-5)” value in the data set on bovine retinal PDE-6 [2] was 140. In the data set with bovine retinal PDE-6 [2] (selectivity >70 called high), the “selectivity on PDE-5 enzyme versus PDE-6 (in words)” value is listed as “higher selectivity on PDE-5 enzyme than to PDE-6”. Besides, at hERG channel, the IC50 worked out at 8760 nM and the “inhibitory effect on hERG channel (in words)” value is on record as “slight inhibitory effect”. Moreover, in data set [3] (setting [7]), the IC50 was found to be 7.99 nM. The IC50 in data set [3] (setting [8]) amounted to 7.99 nM. In data set [4] (setting [9]), the AUC(0-inf) is 2330 ng·h/mL, the Cmax stood at 415 ng/mL, the Tmax worked out at 2 h and the half-life is 2 h. Also, the bioavailability in data set [4] (setting [9]) was found to be 63%. Further, in data set [4] (intravenous injection, 2 mg/kg), the AUC(0-inf) is 2060 ng·h/mL, the half-life was 4.4 h, the Cl_obs turned out to be 17 mL/min/kg and the Vss_obs turned out to be 4.59 L/kg.

As to `COc1ccc(CNc2nc(N3CCC[C@H]3CO)ncc2C(=O)N[C@H]2CC[C@H](O)CC2)cc1Cl` [WO-88, N-((trans)-4-hydroxylcyclohexan-1-yl)-4-((3-chloro-4-methoxybenzyl)amino)-2-((s)-2-(hydroxymethyl)tetrahydropyrrole-1-yl)-5-pyrimidine formamide, reference compound], on hERG channel, the IC50 was more than 30000 nM. This compound gave an IC50 in data set [3] of 0.59 nM. Moreover, in data set [4] (setting [10]), the AUC(0-inf) was 63 ng·h/mL, the highest level (Cmax) was 29 ng/mL, the Tmax is 0.5 h and the half-life is 2.8 h. Further, the bioavailability in data set [4] (setting [10]) worked out at 23%. Moreover, in data set [4] (intravenous injection, 1 mg/kg), the AUC(0-inf) was 347 ng·h/mL, the half-life is 1 h, the Cl_obs came to 48.3 mL/min/kg and the Vss_obs came to 3.6 L/kg.

In the case of `COc1ccc(CNc2nc(N3Cc4cccnc4C3)ncc2C(=O)N[C@H]2CC[C@H](O)CC2)cc1Cl` [WO-93, N-(trans-4-hydroxycyclohexan-1-yl)-4-((3-chloro-4-methoxybenzyl)amino)-2-(5H-pyrrolo[3,4-b]pyridin-6(7H)yl)-5-pyrimidine formamide, reference compound], the IC50 against hERG channel was more than 30000 nM. Besides, in data set [4] (setting [10]), the AUC(0-inf) stood at 89 ng·h/mL, the Cmax came out at 15 ng/mL, the Tmax worked out at 4 h and the half-life was 2.8 h. Further, in data set [4] (setting [10]), the bioavailability stood at 16%. In data set [4] (intravenous injection, 1 mg/kg), this compound showed an AUC(0-inf) of 709 ng·h/mL, a half-life of 2.6 h, a Cl_obs of 25 mL/min/kg and a Vss_obs of 5.0 L/kg.
